Test results as given in ChEMBL document CHEMBL1136425, “A novel metal-chelating inhibitor of protein farnesyltransferase” (Bioorg Med Chem Lett, 2003).
Converted amounts (≈) assume the structure as drawn.

Legend:
[1] = biological target: Protein farnesyltransferase (Homo sapiens, UniProt P49354+P49356); assay: Inhibition of [3H]farnesyl pyrophosphate binding to human farnesyltransferase; assay type: protein-complex assay
[2] = Inhibitory activity against K-rasNRK cells; assay type: functional, cell-based, Rattus norvegicus

Structure (SMILES) | IC50 [1] | IC50 [2]
CN(C)c1cc(CNCCS)nc(CNCCS)c1 | 0.62 mM | –
SCCNCc1cc(-c2cccc3ccccc23)cc(CNCCS)n1 | – | 0.32 µg/mL (≈ 0.834 µM)
c1ccc(-c2ccccn2)nc1 | 100 mM | –
NCCN [ETHYLENEDIAMINE] | 15.5 mM | –
CCCC[C@@H](C)/C=C(C)/C=C(\C)C(=O)NC1=C[C@@](O)(/C=C/C=C/C=C/C(=O)NC2=C(O)CCC2=O)[C@@H]2O[C@@H]2C1=O [MANUMYCIN A] | 0.0119 mM | –
c1cnc2c(c1)ccc1cccnc12 [PHENANTHROLINE] | 4 mM | –
